Publication PMC8213057, “Targeting ALK2: An Open Science Approach to Developing Therapeutics for the Treatment of Diffuse Intrinsic Pontine Glioma” (Journal of Medicinal Chemistry, 2020)

Legend:
[1] = target: WEE1 (Homo sapiens, UniProt P30291); test: biochemical; conditions: read-out: % enzyme activity, 1 μM; Run 1, Run 2
[2] = target: MEK2 (Homo sapiens, UniProt P36507); test: biochemical; conditions: read-out: % enzyme activity, 1 μM; Run 1, Run 2
[3] = target: DAPK2 (Homo sapiens, UniProt Q9UIK4); conditions: 1 μM; Run 1, Run 2
[4] = target: CK1epsilon (Homo sapiens, UniProt P49674); conditions: 1 μM; Run 1, Run 2
[5] = target: T1, MASTL (Homo sapiens, UniProt Q96GX5); conditions: 1 μM; Run 1, Run 2
T1 sequence (Q96GX5 1-879): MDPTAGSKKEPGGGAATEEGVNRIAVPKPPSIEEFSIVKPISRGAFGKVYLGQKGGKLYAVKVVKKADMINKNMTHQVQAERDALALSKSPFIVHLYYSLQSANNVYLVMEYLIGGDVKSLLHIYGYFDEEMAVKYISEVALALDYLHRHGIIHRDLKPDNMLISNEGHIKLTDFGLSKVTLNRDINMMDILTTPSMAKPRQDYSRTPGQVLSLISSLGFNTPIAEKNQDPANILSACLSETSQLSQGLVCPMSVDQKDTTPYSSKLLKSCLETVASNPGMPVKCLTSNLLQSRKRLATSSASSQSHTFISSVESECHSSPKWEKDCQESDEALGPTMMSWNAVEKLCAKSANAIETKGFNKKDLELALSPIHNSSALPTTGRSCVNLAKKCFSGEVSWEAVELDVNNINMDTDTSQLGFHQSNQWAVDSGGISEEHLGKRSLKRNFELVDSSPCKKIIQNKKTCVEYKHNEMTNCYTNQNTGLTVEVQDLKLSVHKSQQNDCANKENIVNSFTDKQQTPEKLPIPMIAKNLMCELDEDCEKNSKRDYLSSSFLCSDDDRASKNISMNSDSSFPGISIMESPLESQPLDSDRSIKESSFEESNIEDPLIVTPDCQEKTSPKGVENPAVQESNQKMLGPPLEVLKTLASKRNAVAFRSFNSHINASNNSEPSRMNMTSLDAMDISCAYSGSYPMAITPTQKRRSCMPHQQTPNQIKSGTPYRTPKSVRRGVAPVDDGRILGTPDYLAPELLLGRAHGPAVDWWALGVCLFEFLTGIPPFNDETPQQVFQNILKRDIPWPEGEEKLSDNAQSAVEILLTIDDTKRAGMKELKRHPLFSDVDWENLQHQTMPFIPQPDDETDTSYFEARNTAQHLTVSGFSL

[6] = target: T2, PKD2/PRKD2 (Homo sapiens, UniProt Q9BZL6); test: biochemical; conditions: read-out: % enzyme activity, 1 μM; Run 1, Run 2
T2 sequence (Q9BZL6 1-878): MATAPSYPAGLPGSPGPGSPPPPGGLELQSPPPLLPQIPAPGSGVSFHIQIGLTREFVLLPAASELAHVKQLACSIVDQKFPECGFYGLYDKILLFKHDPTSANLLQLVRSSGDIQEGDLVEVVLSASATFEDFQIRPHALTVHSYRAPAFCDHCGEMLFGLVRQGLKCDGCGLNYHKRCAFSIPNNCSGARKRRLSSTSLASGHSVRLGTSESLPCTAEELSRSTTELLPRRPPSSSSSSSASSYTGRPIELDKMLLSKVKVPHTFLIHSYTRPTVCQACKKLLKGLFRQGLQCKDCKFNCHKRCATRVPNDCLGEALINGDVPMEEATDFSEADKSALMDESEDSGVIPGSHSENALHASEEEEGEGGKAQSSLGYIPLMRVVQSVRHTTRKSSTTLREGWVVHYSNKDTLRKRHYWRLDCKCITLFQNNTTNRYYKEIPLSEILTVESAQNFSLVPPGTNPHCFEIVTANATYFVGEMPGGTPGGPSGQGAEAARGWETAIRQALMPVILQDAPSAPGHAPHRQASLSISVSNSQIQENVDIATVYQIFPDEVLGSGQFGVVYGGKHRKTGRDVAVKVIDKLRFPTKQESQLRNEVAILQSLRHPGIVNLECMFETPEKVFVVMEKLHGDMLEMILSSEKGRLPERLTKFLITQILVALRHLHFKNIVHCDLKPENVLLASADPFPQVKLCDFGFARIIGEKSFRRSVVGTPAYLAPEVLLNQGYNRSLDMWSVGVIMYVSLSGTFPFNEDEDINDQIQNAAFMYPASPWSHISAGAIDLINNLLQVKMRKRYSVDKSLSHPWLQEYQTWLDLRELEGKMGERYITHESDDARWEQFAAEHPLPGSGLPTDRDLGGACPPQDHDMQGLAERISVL

[7] = target: T3, ALK2/ACVR1 (Homo sapiens, UniProt Q04771); test: biochemical; conditions: Run 1, Run 2; for % enzyme activity: 1 μM; for remaining activity at 1 µM: read-out: % enzyme activity, 1 μM
T3 construct: purchased Reaction Biology Corporation
T3 sequence (Q04771 21-509): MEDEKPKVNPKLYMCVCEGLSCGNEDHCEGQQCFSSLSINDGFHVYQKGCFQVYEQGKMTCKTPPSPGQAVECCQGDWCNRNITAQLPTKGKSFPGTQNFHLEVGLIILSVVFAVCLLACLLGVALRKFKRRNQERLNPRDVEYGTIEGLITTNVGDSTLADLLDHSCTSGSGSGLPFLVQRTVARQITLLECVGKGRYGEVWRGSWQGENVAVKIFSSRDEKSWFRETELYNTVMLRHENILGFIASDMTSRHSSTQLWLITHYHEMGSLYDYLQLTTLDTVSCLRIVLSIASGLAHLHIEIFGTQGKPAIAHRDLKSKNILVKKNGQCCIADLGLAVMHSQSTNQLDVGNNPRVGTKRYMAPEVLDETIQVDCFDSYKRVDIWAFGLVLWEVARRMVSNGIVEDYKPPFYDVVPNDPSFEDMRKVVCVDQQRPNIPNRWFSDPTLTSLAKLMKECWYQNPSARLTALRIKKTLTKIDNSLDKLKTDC

Chain of MEK2 (P36507 whole entry): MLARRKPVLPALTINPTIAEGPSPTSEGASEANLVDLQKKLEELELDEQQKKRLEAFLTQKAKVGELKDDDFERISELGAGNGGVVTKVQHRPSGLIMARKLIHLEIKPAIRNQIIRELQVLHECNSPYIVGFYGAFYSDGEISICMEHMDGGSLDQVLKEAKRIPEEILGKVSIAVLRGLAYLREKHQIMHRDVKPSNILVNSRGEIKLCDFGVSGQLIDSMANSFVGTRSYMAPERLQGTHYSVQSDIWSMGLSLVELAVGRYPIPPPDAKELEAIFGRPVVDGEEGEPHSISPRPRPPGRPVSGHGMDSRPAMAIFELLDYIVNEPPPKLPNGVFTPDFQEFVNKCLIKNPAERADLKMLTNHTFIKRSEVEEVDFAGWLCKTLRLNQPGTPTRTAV
Chain of WEE1 (P30291 whole entry, species assumed): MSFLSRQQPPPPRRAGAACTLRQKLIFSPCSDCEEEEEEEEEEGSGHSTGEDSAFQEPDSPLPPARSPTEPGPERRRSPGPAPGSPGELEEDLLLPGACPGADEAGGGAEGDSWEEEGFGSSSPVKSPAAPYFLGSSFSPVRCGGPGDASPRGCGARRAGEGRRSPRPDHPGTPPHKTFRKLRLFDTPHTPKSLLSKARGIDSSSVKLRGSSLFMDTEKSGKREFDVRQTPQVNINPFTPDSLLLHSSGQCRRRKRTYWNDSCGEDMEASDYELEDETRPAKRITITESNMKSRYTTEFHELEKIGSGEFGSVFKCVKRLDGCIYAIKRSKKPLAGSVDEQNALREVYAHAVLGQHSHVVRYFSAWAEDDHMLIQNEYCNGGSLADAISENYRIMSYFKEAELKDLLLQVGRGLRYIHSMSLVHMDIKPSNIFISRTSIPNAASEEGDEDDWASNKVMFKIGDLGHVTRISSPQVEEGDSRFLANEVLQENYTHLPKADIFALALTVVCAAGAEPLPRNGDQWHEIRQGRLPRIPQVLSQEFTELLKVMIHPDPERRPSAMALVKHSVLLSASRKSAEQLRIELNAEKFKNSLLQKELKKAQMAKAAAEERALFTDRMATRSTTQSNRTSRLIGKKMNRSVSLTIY
Chain of DAPK2 (Q9UIK4 whole entry): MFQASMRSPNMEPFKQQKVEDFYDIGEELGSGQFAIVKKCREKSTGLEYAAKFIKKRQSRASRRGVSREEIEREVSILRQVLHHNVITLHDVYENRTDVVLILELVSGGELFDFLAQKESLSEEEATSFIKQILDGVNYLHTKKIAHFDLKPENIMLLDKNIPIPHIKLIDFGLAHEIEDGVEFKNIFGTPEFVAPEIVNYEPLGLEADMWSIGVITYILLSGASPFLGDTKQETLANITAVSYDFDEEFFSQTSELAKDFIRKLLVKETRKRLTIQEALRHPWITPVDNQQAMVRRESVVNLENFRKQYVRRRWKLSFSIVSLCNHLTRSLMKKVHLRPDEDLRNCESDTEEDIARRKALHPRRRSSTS
Chain of CK1epsilon (P49674 whole entry): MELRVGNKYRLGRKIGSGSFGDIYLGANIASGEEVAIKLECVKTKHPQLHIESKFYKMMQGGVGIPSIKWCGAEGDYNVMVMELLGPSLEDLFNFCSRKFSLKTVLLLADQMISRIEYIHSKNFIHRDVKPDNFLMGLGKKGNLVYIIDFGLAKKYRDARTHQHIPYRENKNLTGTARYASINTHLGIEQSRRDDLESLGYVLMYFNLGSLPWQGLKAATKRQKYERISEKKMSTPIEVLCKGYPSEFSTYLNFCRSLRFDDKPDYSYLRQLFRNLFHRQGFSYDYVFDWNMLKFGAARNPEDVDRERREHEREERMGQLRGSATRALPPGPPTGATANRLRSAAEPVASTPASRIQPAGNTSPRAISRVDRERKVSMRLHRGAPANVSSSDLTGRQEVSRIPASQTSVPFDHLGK

COc1cc(-c2cncc(-c3ccc(N4CCN(C)CC4)cc3)c2C)cc(F)c1C(N)=O [Compound 26a, 2-Fluoro-6-methoxy-4-(4-methyl-5-(4-(4-methylpiperazin-1-yl)phenyl)pyridin-3-yl)benzamide]
remaining activity at 1 µM [1]: 105%
remaining activity at 1 µM [2]: 87.1%
% enzyme activity [3]: 101.48%
% enzyme activity [4]: 93.07%
% enzyme activity [5]: 98.59%
remaining activity at 1 µM [6]: 96.1%
% enzyme activity [7]: 8.63%
remaining activity at 1 µM [7]: 9.92%

COc1cc(-c2cncc(-c3ccc(N4C[C@@H](C)N(C)[C@@H](C)C4)cc3)c2C)cc(F)c1C(N)=O [Compound 26c, 2-Fluoro-6-methoxy-4-(4-methyl-5-(4-((3R,5S)-3,4,5-trimethylpiperazin-1-yl)phenyl)pyridin-3-yl)benzamide]
remaining activity at 1 µM [1]: 105%
remaining activity at 1 µM [2]: 94%
% enzyme activity [3]: 95.98%
% enzyme activity [4]: 90.08%
% enzyme activity [5]: 100.30%
remaining activity at 1 µM [6]: 99.2%
% enzyme activity [7]: 11.70%
remaining activity at 1 µM [7]: 13.7%
